Experiments:
Experiment in all cases: relative viability (nuclei count vs DMSO), 5 days (fraction); higher = more cells survive
[1] = compound: COC1=CC=C(C=C1)CN2C=CC3=C2C=C(C=C3)C(=O)NO + N=C(N)NC(=N)NCCc1ccccc1 [Phenformin] (partner 250 µM)
Summary of the method: (§1)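 Values are medians from duplicate plates. Each reflects relative viability, defined as the nuclei count of treated wells over that of vehicle wells. Lung cancer cell lines in 1536-well plates were pin-tool dosed one day after seeding with one drug alone or with a fixed anchor-drug dose plus five library-drug doses (not always all listed) in √10 steps, then fixed, stained and imaged at 4× after 5 days.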

Veliparib + Vorinostat = compound: C[C@]1(c2nc3c(C(N)=O)cccc3[nH]2)CCCN1 [Veliparib] + O=C(CCCCCCC(=O)Nc1ccccc1)NO [Vorinostat] (partner 1 µM)
Summary of the method: as §1

[2] = compound: COC1=CC=C(C=C1)CN2C=CC3=C2C=C(C=C3)C(=O)NO + O=C(CCCCCCC(=O)Nc1ccccc1)NO [Vorinostat] (partner 1 µM)
Summary of the method: as §1

Veliparib + Lapatinib = compound: C[C@]1(c2nc3c(C(N)=O)cccc3[nH]2)CCCN1 [Veliparib] + CS(=O)(=O)CCNCc1ccc(-c2ccc3ncnc(Nc4ccc(OCc5cccc(F)c5)c(Cl)c4)c3c2)o1 [Lapatinib] (partner 2 µM)
Summary of the method: as §1

Cell Line: NCI-H1915
- relative viability ([1]; first compound 0.08 µM): 0.348
- relative viability ([1]; first compound 0.253 µM): 0.38
- relative viability ([1]; first compound 0.8 µM): 0.378
- relative viability ([1]; first compound 2.53 µM): 0.359
- relative viability ([1]; first compound 8 µM): 0.348
- relative viability (Veliparib + Vorinostat; first compound 0.02 µM): 0.499
- relative viability (Veliparib + Vorinostat; first compound 0.06325 µM): 0.465
- relative viability (Veliparib + Vorinostat; first compound 0.2 µM): 0.396
- relative viability (Veliparib + Vorinostat; first compound 0.6325 µM): 0.388
- relative viability (Veliparib + Vorinostat; first compound 2 µM): 0.426
- relative viability ([2]; first compound 0.08 µM): 0.326
- relative viability ([2]; first compound 0.253 µM): 0.49
- relative viability ([2]; first compound 0.8 µM): 0.48
- relative viability ([2]; first compound 2.53 µM): 0.514
- relative viability ([2]; first compound 8 µM): 0.492
- relative viability (Veliparib + Lapatinib; first compound 0.02 µM): 0.96
- relative viability (Veliparib + Lapatinib; first compound 0.06325 µM): 0.897
- relative viability (Veliparib + Lapatinib; first compound 0.2 µM): 0.756
- relative viability (Veliparib + Lapatinib; first compound 0.6325 µM): 0.872
- relative viability (Veliparib + Lapatinib; first compound 2 µM): 0.885

Cell Line: CAL-12T
- relative viability ([1]; first compound 0.08 µM): 0.643
- relative viability ([1]; first compound 0.253 µM): 0.563
- relative viability ([1]; first compound 0.8 µM): 0.589
- relative viability ([1]; first compound 2.53 µM): 0.581
- relative viability ([1]; first compound 8 µM): 0.493
- relative viability (Veliparib + Vorinostat; first compound 0.02 µM): 0.695
- relative viability (Veliparib + Vorinostat; first compound 0.06325 µM): 0.834
- relative viability (Veliparib + Vorinostat; first compound 0.2 µM): 0.729
- relative viability (Veliparib + Vorinostat; first compound 0.6325 µM): 0.589
- relative viability (Veliparib + Vorinostat; first compound 2 µM): 0.886
- relative viability ([2]; first compound 0.08 µM): 0.562
- relative viability ([2]; first compound 0.253 µM): 0.855
- relative viability ([2]; first compound 0.8 µM): 0.821
- relative viability ([2]; first compound 2.53 µM): 0.719
- relative viability ([2]; first compound 8 µM): 0.787
- relative viability (Veliparib + Lapatinib; first compound 0.02 µM): 0.649
- relative viability (Veliparib + Lapatinib; first compound 0.06325 µM): 0.706
- relative viability (Veliparib + Lapatinib; first compound 0.2 µM): 0.647
- relative viability (Veliparib + Lapatinib; first compound 0.6325 µM): 0.593
- relative viability (Veliparib + Lapatinib; first compound 2 µM): 0.781

Cell Line: NCI-H1437
- relative viability ([1]; first compound 0.08 µM): 0.289
- relative viability ([1]; first compound 0.253 µM): 0.348
- relative viability ([1]; first compound 0.8 µM): 0.36
- relative viability ([1]; first compound 2.53 µM): 0.424
- relative viability ([1]; first compound 8 µM): 0.274
- relative viability (Veliparib + Vorinostat; first compound 0.02 µM): 0.886
- relative viability (Veliparib + Vorinostat; first compound 0.06325 µM): 0.746
- relative viability (Veliparib + Vorinostat; first compound 0.2 µM): 0.798
- relative viability (Veliparib + Vorinostat; first compound 0.6325 µM): 0.887
- relative viability (Veliparib + Vorinostat; first compound 2 µM): 0.813
- relative viability ([2]; first compound 0.08 µM): 0.684
- relative viability ([2]; first compound 0.253 µM): 0.766
- relative viability ([2]; first compound 0.8 µM): 0.881
- relative viability ([2]; first compound 2.53 µM): 0.891
- relative viability ([2]; first compound 8 µM): 1.01
- relative viability (Veliparib + Lapatinib; first compound 0.02 µM): 0.519
- relative viability (Veliparib + Lapatinib; first compound 0.06325 µM): 0.794
- relative viability (Veliparib + Lapatinib; first compound 0.2 µM): 0.72
- relative viability (Veliparib + Lapatinib; first compound 0.6325 µM): 0.78
- relative viability (Veliparib + Lapatinib; first compound 2 µM): 0.759

Cell Line: UMC-11
- relative viability ([1]; first compound 0.253 µM): 0.356
- relative viability ([1]; first compound 0.8 µM): 0.331
- relative viability ([1]; first compound 2.53 µM): 0.286
- relative viability ([1]; first compound 8 µM): 0.309
- relative viability (Veliparib + Vorinostat; first compound 0.02 µM): 0.432
- relative viability (Veliparib + Vorinostat; first compound 0.06325 µM): 0.354
- relative viability (Veliparib + Vorinostat; first compound 0.2 µM): 0.365
- relative viability (Veliparib + Vorinostat; first compound 0.6325 µM): 0.381
- relative viability (Veliparib + Vorinostat; first compound 2 µM): 0.394
- relative viability ([2]; first compound 0.08 µM): 0.149
- relative viability ([2]; first compound 0.253 µM): 0.467
- relative viability ([2]; first compound 0.8 µM): 0.428
- relative viability ([2]; first compound 2.53 µM): 0.375
- relative viability ([2]; first compound 8 µM): 0.506
- relative viability (Veliparib + Lapatinib; first compound 0.02 µM): 0.893
- relative viability (Veliparib + Lapatinib; first compound 0.06325 µM): 1
- relative viability (Veliparib + Lapatinib; first compound 0.2 µM): 0.841
- relative viability (Veliparib + Lapatinib; first compound 0.6325 µM): 1.09
- relative viability (Veliparib + Lapatinib; first compound 2 µM): 1.07

Cell Line: HCC-44
- relative viability ([1]; first compound 0.08 µM): 0.166
- relative viability ([1]; first compound 0.253 µM): 0.231
- relative viability ([1]; first compound 0.8 µM): 0.185
- relative viability ([1]; first compound 2.53 µM): 0.228
- relative viability ([1]; first compound 8 µM): 0.16
- relative viability (Veliparib + Vorinostat; first compound 0.02 µM): 1.07
- relative viability (Veliparib + Vorinostat; first compound 0.06325 µM): 1.03
- relative viability (Veliparib + Vorinostat; first compound 0.2 µM): 1.07
- relative viability (Veliparib + Vorinostat; first compound 0.6325 µM): 1.06
- relative viability (Veliparib + Vorinostat; first compound 2 µM): 1.15
- relative viability ([2]; first compound 0.08 µM): 1.09
- relative viability ([2]; first compound 0.253 µM): 1.06
- relative viability ([2]; first compound 0.8 µM): 1.18
- relative viability ([2]; first compound 2.53 µM): 1.14
- relative viability ([2]; first compound 8 µM): 1.12
- relative viability (Veliparib + Lapatinib; first compound 0.02 µM): 0.986
- relative viability (Veliparib + Lapatinib; first compound 0.06325 µM): 0.85
- relative viability (Veliparib + Lapatinib; first compound 0.2 µM): 1.01
- relative viability (Veliparib + Lapatinib; first compound 0.6325 µM): 0.933
- relative viability (Veliparib + Lapatinib; first compound 2 µM): 1.07

From the supplement of paper PMC10307832
